Target: EmrE (Escherichia coli, UniProt P23895)
Assay: biochemical

Sequence of EmrE (P23895 whole entry): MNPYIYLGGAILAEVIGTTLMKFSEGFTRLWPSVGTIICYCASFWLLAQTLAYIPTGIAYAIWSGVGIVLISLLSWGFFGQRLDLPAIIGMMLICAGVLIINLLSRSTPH

Kd: 0.12 ± 0.012 µM
SMILES: c1ccc([P+](c2ccccc2)(c2ccccc2)c2ccccc2)cc1 [TPP^+]

— paper PMC3253143 (Nature, 2011)
